Values quoted from earlier work in publication PMC12729893, “Untargeted UHPLC-HRMS Metabolomic Profiling of Cornus mas L. Fruits: Impact of Conventional and Emerging Extraction Methods on Phenolic Composition and Bioactivity” (Antioxidants, 2025).

Compound	α-amylase inhibition according to computational analysis (α-amylase)	α-glucosidase inhibition according to computational analysis (α-glucosidase)
O=c1oc2c(O)c(O)cc3c(=O)oc4c(O)c(O)cc1c4c23 [ellagic acid]	most effective inhibitors	most effective inhibitors
C[C@@H]1O[C@@H](OC[C@H]2O[C@@H](Oc3cc4c(O)cc(O)cc4[o+]c3-c3ccc(O)cc3)[C@H](O)[C@@H](O)[C@H]2O)[C@H](O)[C@H](O)[C@H]1O [pelargonidin 3-robinobioside]	–	most potent inhibitor
